Laboratory results reported in US20250295799A1, “ANTIBODY-DRUG CONJUGATES TARGETING GLYPICAN-3 AND METHODS OF USE” (Zymeworks BC Inc., priority 2022, published 2025).

Columns and labels:
[1] = tested on: JHH-7 cells (high GPC3-expressing); assay: Internalization by flow cytometry (quenched AF488); assay type: cell-based; details: JHH-7; 5 nM; 24 h
Description: (§1) Cells were seeded at 50,000 cells/well in 48-well plates and incubated overnight under standard culturing conditions (37° C./5% CO2) in Gibco™ Dulbecco's Modified Eagle Media (DMEM) (Thermo Fisher Scientific, Waltham, MA; Cat. No. 11995040) with 10% Fetal Bovine Serum (FBS) (Thermo Fisher Scientific, Waltham, MA; Cat. No. 12483020) for Hep G2 cells, and Gibco™ William's E Medium, GlutaMAX™ Supplement (Thermo Fisher Scientific, Waltham, MA; Cat. No. 32551020) with 10% FBS (Thermo Fisher Scientific, Waltham, MA; Cat. No. 12483020) for JHH-7 cells. Coupled antibodies were added to cells the following day at 10 nM or at 100 nM and incubated under standard culturing conditions for 5-24 hours to allow for internalization. Following incubation, cells were dissociated, washed, and surface AF488 fluorescence was quenched using an anti-AF488 antibody (Life Technologies, Carlsbad, CA; Cat. No. A-11094) at 100 nM for 30 minutes at 4° C. Quenched AF488 fluorescence (internalized fluorescence) was detected by flow cytometry on a BD LSRFortessa™ Cell Analyzer (BD Biosciences, Franklin Lake, NJ) with 1,000 minimum events collected per well.
as §1, with “CO2)” for “CO2) in Gibco™ Dulbecco's Modified Eagle Media (DMEM) (Thermo Fisher Scientific, Waltham, MA; Cat. No. 11995040) with 10% Fetal Bovine Serum (FBS) (Thermo Fisher Scientific, Waltham, MA; Cat. No. 12483020) for Hep G2 cells, and”, “12483020).” for “12483020) for JHH-7 cells.”, “5” for “10 nM or at 100”, “24” for “5-24”, “well. […]” for “well.”

[2] = tested on: cynomolgus monkey GPC3 on transfected CHO-S cells; assay: Binding to transfected CHO-S cells by flow cytometry; details: 24 h at 4 °C
Description: Briefly, CHO—S cells were transiently transfected for −24 hours with a pTT5-based expression plasmid encoding human GPC3 or cynomolgus monkey GPC3, 0.5 μg DNA per 1 million cells, using the Neon™ Transfection System (Thermo Fisher Scientific Corp., Waltham, MA), to transiently express human or cynomolgus monkey GPC3. Following transfection, cells were seeded at 50,000 cells/well in V-bottom 96-well plates and treated with antibody for 24 hours at 4° C. to prevent internalization. […] Following incubation and washing, fluorescence was detected by flow cytometry on a BD LSRFortessa™ Cell Analyzer (BD Biosciences, Franklin Lake, NJ) with 1,000 minimum events collected per well. AF647/APC-A GeoMean (fluorescence signal geometric mean, proportional to anti-Human AF647 binding) in live cell population was plotted against antibody concentration using GraphPad Prism Version 9 (GraphPad Software, San Diego, CA). The Bmax and Kd values were derived from the “Specific binding with Hill slope” nonlinear regression curve fit in GraphPad Prism Version 9.
Briefly, CHO—S cells were transiently transfected for −24 hours with a pTT5-based expression plasmid encoding human GPC3 or cynomolgus monkey GPC3, 0.5 μg DNA per 1 million cells, using the Neon™ Transfection System (Thermo Fisher Scientific Corp., Waltham, MA), to transiently express human or cynomolgus monkey GPC3. […]

Sequence of cynomolgus monkey GPC3 on transfected CHO-S cells (as listed by the source): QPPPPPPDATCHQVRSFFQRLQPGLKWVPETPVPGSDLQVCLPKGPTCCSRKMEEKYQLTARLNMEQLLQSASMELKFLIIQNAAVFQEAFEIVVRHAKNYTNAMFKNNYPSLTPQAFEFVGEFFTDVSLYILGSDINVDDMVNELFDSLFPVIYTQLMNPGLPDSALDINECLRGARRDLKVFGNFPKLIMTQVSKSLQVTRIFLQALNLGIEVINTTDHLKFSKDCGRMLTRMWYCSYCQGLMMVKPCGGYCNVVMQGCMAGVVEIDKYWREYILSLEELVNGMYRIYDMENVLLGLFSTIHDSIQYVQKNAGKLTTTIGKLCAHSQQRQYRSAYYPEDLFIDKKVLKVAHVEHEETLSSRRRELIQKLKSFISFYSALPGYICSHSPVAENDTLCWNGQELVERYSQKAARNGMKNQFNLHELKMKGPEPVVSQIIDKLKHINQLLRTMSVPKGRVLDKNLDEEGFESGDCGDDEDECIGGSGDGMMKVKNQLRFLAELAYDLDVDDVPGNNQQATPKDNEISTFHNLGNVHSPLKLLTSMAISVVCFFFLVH

## palivizumab
[1]
  internalization, in words: minimal internalization
[2]
  binding to CHO-S cells expressing cynomolgus monkey GPC3, in words: did not exhibit any binding
